Key:
HaCaT cells = assay: Trypan blue exclusion assay, HaCaT; format: cell-based, human; conditions: IC50 concentration, 72 h
Procedure: The MTT assay assesses the viable cell number based on mitochondrial enzyme activity. […] In the next step of our studies, we analyzed the total cell number and viability after exposure to the selected compounds at IC50 concentration using trypan blue exclusion assay. K562 cells were incubated with tested compounds over 72 h. […] To assess the antiproliferative properties of newly synthesized derivatives, we analyzed the total cell number. […] The parallel experiment was conducted with HaCaT cells. […] The trypan blue test rapidly assesses cell viability indirectly from cell membrane integrity, but some publications have indicated weaknesses of this viability test. […] On the other hand, cell membrane integrity may be affected even while the cell might still be able to repair itself and become fully viable.
To evaluate the antiproliferative effects of the novel benzofurans derivatives the trypan blue exclusion assay was performed. Cells (HaCat, and K562) were seeded into 12-well plates (2 × 10^4 cells/well). After 24 h, cells were exposed to the tested compounds at concentrations of their respective IC50 and incubated for 72h. […] Cells were counted by automatic cell counter (Countessa). Data obtained were expressed as the mean ± SD and the mean percentage of viable cells was calculated from three independent experiments performed in triplicate.

[1] = tested on: reactive oxygen species (H2O2) in K562 cells; assay: ROS generation (DHR 123 and DCFH-DA fluorescence); format: cell-based, human; conditions: K562, IC50 concentration, 12 h incubation, DHR123 or DCF-DA, compared with untreated cells
Text: The resulting data were expressed as mean ± SD from three independent experiments performed in triplicate.

[2] = tested on: PC3 cells (human metastatic prostate cancer); assay: MTT cytotoxicity assay, PC3; format: cell-based; conditions: PC-3, 72 h incubation, mean ± SD
Procedure: (§1) The cell viability was analyzed at the following six concentrations of compounds: 5, 10, 20, 40, 60 and 100 µM after 72 h incubation.
(§2) Additionally, to determine the safety profile of the tested compounds, the therapeutic index (TI) (the ratio of IC50 value in HaCaT to cancer cells K562) was calculated. […] The goal of conducting the MTT assay in this research was to select benzofuran derivatives, which manage to reduce viability of cancer cells while exposing mild effects on normal healthy cells.
(§3) The cytotoxicity was evaluated by MTT reduction assay, which measures mitochondrial respiratory function. The test was performed based on the method described by Präbst et al.. Cells (1 × 10^4/well), in logarithmic phase, were seeded into 96-well plates in appropriate medium. After 24 h, cells were exposed to test compounds. […] After 72 h, the medium with the compounds was completely removed and MTT solution (0.5 mg/mL) in fresh medium without serum was added to each well. Plates with cells were incubated for 4 h at 37 °C in the dark. Then, MTT solution was removed and replenished with 0.1 mL DMSO: isopropanol (1:1) mixture to dissolve the generated formazan crystals. The optical density was measured with a […] GO (ThermoScientific) microplate reader at 570 nm. Replicates of three wells for each dosage, including vehicle control, were analyzed for each experiment. The experiments were conducted in triplicate. Control cells which were only treated with respective medium were used as the 100% viability value. […] Additionally, to determine the safety profile of the test compounds, therapeutic indexes (TI) (the ratio of IC50 values in HaCat to cancer cells (K562, PC3, SW620, Cack-1)) were calculated.

[3] = tested on: SW620 cells (human metastatic colon cancer); assay: MTT cytotoxicity assay, SW620; format: cell-based; conditions: SW-620, 72 h incubation, mean ± SD
Procedure: as §1, §2, §3

[4] = tested on: IL-6 secretion by K562 cells; assay: IL-6 release, ELISA; format: cell-based, human; conditions: for Il-6 Concentration in K562 Cells in 72 h: ELISA, culture medium, IC50 concentration, mean ± SD; for Reduction of the level of IL-6: K562, IC50 concentration, 72 h
Text: Among many soluble factors present in the plasma and tissue microenvironment in patients with chronic lymphatic leukemia recent studies confirmed a presence of few types of interleukin (IL) including 4, 6 and 10. […] IL-6 is a member of a big family of cytokines and is predominantly excreted by T cells and macrophages to stimulate immune response during infection. Studies have shown that elevated levels of serum IL-6 is positively correlated with worse clinical outcomes in patients with different types of cancer, including leukemia. IL-6 also plays a key role in the chemoresistance of malignancies. Based on these findings we checked the effect of our new benzofuran derivatives on IL-6 secretion by K562 cells. […] On the other hand, K562 cells like other erythroid and megakaryocytic cells release IL-6 in a constitutive way.
K562 cells were treated with IC50 concentrations of the tested compounds. After 72 h, medium was collected and the IL-6 level was measured using an enzyme-linked immunosorbent assay, in accordance with the manufacturer’s protocol. The resulting data were expressed as mean ± SD from three independent experiments performed in triplicate.

[5] = tested on: standard bacteria strains; assay: Antibacterial screening against standard strains (overall statements); format: cell-based; conditions: concentrations 16 to 512 µg/mL
Procedure: All of the obtained derivatives (1–9) were tested in vitro against a number of bacteria, including representative standard Gram-positive and Gram-negative rods. Compounds were screened for their minimal inhibitory concentrations (MICs).
The antimicrobial studies for all of the obtained compounds were conducted using reference strains of bacteria derived from international microbe collections—the American Type Culture Collection (ATCC) and the National Collection of Type Culture (NCTC). Among the reference strains there were two Gram-negative rods (P. aeruginosa ATCC 15442 and E. coli ATCC 25922) and six Gram-positive isolates (Staphylococcus aureus: NCTC 4163, ATCC 25923, ATCC 6538, ATCC 29213, S. epidermidis ATCC 12228, ATCC 35984). These strains are widely used to determine the activity of antimicrobials and check the drug susceptibility of bacteria, and their use enables comparison of assay results obtained in independent laboratories all over the world.
The antimicrobial activity of compounds was expressed by minimum inhibitory concentration values (MICs), according to CLCI reference procedures with some modifications. MIC was tested by the two-fold serial microdilution method (in 96-well microtiter plates) on MH II liquid medium. The final inoculum of all of the studied bacteria was 10^6 CFU/mL (colony forming unit per mL). […]

Row | SMILES | Cell Number (×10^6) (HaCaT cells) | Increase of fluorescence intensity (ROS generation) [1] | IC50 [2] [µM] | IC50 [3] [µM] | Il-6 Concentration in K562 Cells in 72 h [4] | Reduction of the level of IL-6 [4] [%] | Antimicrobial activity against the studied strains [5]
1 | CCOc1cccc2oc(C(C)=O)c(CBr)c12 [Compound 8, 1-[3-(Bromomethyl)-4-Ethoxy-1-Benzofuran-2-yl]Ethanone] | 2.00 ± 0.42 ×10^6 | statistically significant increase of fluorescence intensity | 7.86 ± 2.62 | > 100 | 6.958 ± 3.623 | 40 | 
2 | COc1cc(OC)c2c(CBr)c(C(C)=O)oc2c1 [Compound 6, 1-[3-(Bromomethyl)-4,6-Dimethoxy-1-Benzofuran-2-yl]Ethanone] | 2.45 ± 1.63 ×10^6 | two-fold increase in fluorescence intensity | 7.02 ± 2.22 | > 100 | 5.791 ± 2.048 | 50 | did not show antimicrobial properties against the studied strains
